Test results taken from patent publication US7781417B2, “Cyclodextrin dimers and derivatives thereof, methods for preparing them and their use, in particular, for the solubilizing pharmacologically active substances” (Centre National de la Recherche Scientifique, priority 2003, dated 2010).
pIC50: −log10 of the molar value. Where “and” joins values, the source holds several entries; their conditions need not be identical. Identical values can stand only once. Like-named read-outs stand apart in the source and are kept apart here.

Experiments:
[1] = biological target: mannose-specific lectin concanavalin A (ConA) (Canavalia ensiformis, UniProt P02866); test: ELLA (Enzyme-Linked Lectin Assay): inhibition of the combination of yeast mannan and horse-radish peroxidase-labelled ConA; type: binding; conditions: for Relative affinity / Relative molar affinity: relative to Me-α-D-Glcp = 1
Method: The affinity of the ureido-, thioureido-, ureidocysteaminyl- and thioureidocysteaminyl-cyclodextrin dimers of the invention which incorporate glucide substituents for specific membrane lectins in vitro is evaluated according to the ELLA (“Enzyme-Linked Lectin Assay”) protocol. Numerous examples of application of this protocol can be found in the article by J. J. Lundquist and E. J. Toon in Chem. Rev. 2002, 102, pp. 555-578. This technique measures the ability of a soluble mono- or oligosaccharide ligand to inhibit the association between a complementary lectin and another reference ligand bound to a plastic support microplate. Thus, the ureido-, thioureido-, ureidocysteaminyl- and thioureidocysteaminyl-cyclodextrin dimers carrying α-D-mannopyranosyl substituents are recognized by concanavalin A or by the mannose-specific lectin of the macrophages, the derivatives with β-lactosyl substituents are recognized by the lactose-specific lectin of Arachys hypogaea or hepatocytes, and the derivatives comprising the tetrasaccharide sialyl-Lewis X substituent are recognized by the selectins of the endothelium involved in the inflammation method.
The affinity of compounds no. 5 to 8 for the mannose-specific lectin concanavalin A (ConA) was evaluated according to the test ELLA protocol. The concentration of compounds no. […] The IC50 values are inversely proportional to the respective affinities.
The microtitration plate cells (Nunc-Immuno™ plates MaxiSorp™) are charged with 100 μl of a yeast mannan stock solution (Sigma, […]) in a saline phosphate buffer solution (PBS; pH 7.3 containing Ca^2+ 0.1 mM and Mn^2+ 0.1 mM) overnight at ambient temperature. The cells are washed (3×300 μl) with a buffer solution containing 0.05% (v/v) Tween 20 (PBTS). This washing protocol is repeated after each incubation during the test. A bovine serum albumin solution (BSA, 1%) in PBS (150 μg/cell) is then added to the cells, followed by incubation for 1 h at 37° C. and then washing.
To determine the optimum lectin concentration for the inhibition studies, 100 μl of a series of Con A solutions labelled with 10^−1 to 10^−5 mg.ml^−1 horse-radish peroxidase in PBS is added to the cells charged with the mannan, followed by treating as indicated above. After incubation at 37° C. for 1 hour, the plates are washed (PBST) and a solution (50 μl) of the diammonium salt of 2,2′-azinobis(3-ethylbenzothiazoline-6-sulphonic) acid (ABTS, 1 mg in 4 ml) in citrate buffer is added (0.2 M; pH 4.0 with 0.015% of oxygenated water). The reaction is stopped after 20 minutes by adding 50 μl/cell sulphuric acid 1 M and the absorbances are measured at 415 nm using an ELISA reader. The sample cells contain the citrate-phosphate buffer. The concentration of lectin marked with peroxidase giving an absorbance value between 0.8 and 1.0 (typically between 10^−2 and 10^−3 mg/ml^−1) was used in the inhibition assays.
For inhibition assays, stock solutions of compounds no. 5 to 8 were used at a concentration of 5 to 7 mg/ml^−1 in PBS. In a series of experiments, ConA marked with horse-radish peroxidase of suitable concentration as indicated above (60 μl/cell) is added to the solutions of each compound (60 μl/cell) in PBS, double-diluted in sequence, in a Nunclon™(Delta) microtitration plate which is incubated at 37° C. for 1 hour. The solutions (100 μl/cell) are then transferred to a microtitration plate charged with mannan and treated as indicated above, then being incubated at 37° C. for 1 hour. The cells are washed (PBST) and ABTS solution added (50 μl/cell). After 20 minutes, the reaction is stopped (sulphuric acid) and the absorbances are measured.
The inhibition percentage is calculated by the formula: […]

[2] = solubility in water of the cyclodextrin (dimer) derivative; type: physicochemical
[3] = inclusion of Taxotere into the cyclodextrin dimer: solubility of Taxotere in sterile water; type: physicochemical
Method: (§1) Taxotere in the pure state is used to start with and 8.3 mg (9.7 μmol) of this product is dispersed in 1 ml of a solution containing 10 mmol.l^−1 of compound no. 3 in sterile water, then the obtained suspension is stirred at 70° C. until a clear solution is obtained which signals the complexation of the Taxotere.
as §1, with “6.6” for “8.3”, “(7.7” for “(9.7”, “8 mmol/l^−1” for “10 mmol.l^−1”, “6” for “3”
as §1, with “5.8” for “8.3”, “([…]” for “(9.7”, “7 mmol/l^−1” for “10 mmol.l^−1”, “6” for “3”

[4] = inhibition of ConA-HRP binding to yeast mannan fixed to microtitration plate, average of three independent experiments, read-out: IC50

Molecule | Relative affinity [1] | Relative molar affinity [1] | pIC50 [1, 4] | also measured
CO[C@H]1O[C@H](CO)[C@@H](O)[C@H](O)[C@H]1O [Me-α-D-Glcp, methyl-α-D-glucopyranoside, reference compound] | 1 | 1 |  | pIC50 [1]: 3.06
OC[C@H]1O[C@@H]2O[C@H]3[C@H](O)[C@@H](O)[C@@H](O[C@H]4[C@H](O)[C@@H](O)[C@@H](O[C@H]5[C@H](O)[C@@H](O)[C@@H](O[C@H]6[C@H](O)[C@@H](O)[C@@H](O[C@H]7[C@H](O)[C@@H](O)[C@@H](O[C@H]8[C@H](O)[C@@H](O)[C@@H](O[C@H]1[C@H](O)[C@H]2O)O[C@@H]8CO)O[C@@H]7CO)O[C@@H]6CO)O[C@@H]5CNC(=S)NCCN(CCNC(=S)NC[C@H]1O[C@@H]2O[C@H]5[C@H](O)[C@@H](O)[C@@H](O[C@H]6[C@H](O)[C@@H](O)[C@@H](O[C@H]7[C@H](O)[C@@H](O)[C@@H](O[C@H]8[C@H](O)[C@@H](O)[C@@H](O[C@H]9[C@H](O)[C@@H](O)[C@@H](O[C@H]%10[C@H](O)[C@@H](O)[C@@H](O[C@H]1[C@H](O)[C@H]2O)O[C@@H]%10CO)O[C@@H]9CO)O[C@@H]8CO)O[C@@H]7CO)O[C@@H]6CO)O[C@@H]5CO)CCNC(=S)Nc1ccccc1)O[C@@H]4CO)O[C@@H]3CO [compound no. 4, bis[2-[N′-(6^I-deoxycyclomaltoheptaos-6^I-yl)thioureido]ethyl] 2-(N′-phenylthioureido)ethylamine] |  |  |  | solubility in water [2]: 115 g·L^−1 and 62 mmol·L^−1
bis[2-[N′-(6^I-deoxycyclomaltoheptaos-6^I-yl)thioureido]ethyl] 2- [N′-(α-D-mannopyranosyl)thioureido]ethylamine [compound no. 5] | 0.67 | 0.67 | 2.89 | 
bis[2-[N′-(6^I-deoxycyclomaltoheptaos-6^I-yl)thioureido]ethyl] 2-(N′-methylthioureido)ethylamine [compound no. 3] |  |  |  | solubility of the Taxotere in a solution of the compound ([3]; 10 mmol.l^−1 of compound in sterile water, stirred at 70° C. until clear): 8300 µg/mL; stability of the Taxotere complex in solution once formed ([3]; ambient temperature, after complexation at 70° C.): remains in solution at ambient temperature
bis[2-[N′-(6^I-deoxycyclomaltoheptaos-6^I-yl)thioureido]ethyl] 2-[N′-[2-[bis[2-[N′-(α-D-mannopyranosyl)thioureido]ethyl] amino]ethyl]thioureido]ethyl amine [compound no. 7] | 3.3 | 1.1 | 3.58 | 
bis[2-[N′-(6^I-deoxycyclomaltoheptaos-6^I-yl)thioureido]ethyl] 2-[N′-[2-[bis[2-[N′-[tris(α-D-mannopyranosyloxymethyl) methyl]thioureido]ethyl] amino]ethyl]thioureido]ethylamine [compound no. 8] | 17.7 | 2.9 | 4.31 | times more effectively recognized by ConA compared with the monovalent cyclodextrin dimer derivative, compound no. 5 ([1]; versus compound no. 5): up to 25 times
bis[2-[N′-(6^I-deoxycyclomaltoheptaos-6^I-yl)thioureido]ethyl] 2-[N′-[tris(2,3,4,6-tetra-O-acetyl-α-D-mannopyranosyloxy-methyl)methyl]thioureido]lethylamine [compound no. 6] | 0.76 | 0.38 | 2.95 | stability of the Taxotere complex in solution once formed [3]: remains in solution at ambient temperature
